According to patent US20210221785A1, “AMINO-PYRIMIDONYL DERIVATIVES, A PROCESS FOR THEIR PREPARATION AND PHARMACEUTICAL COMPOSITIONS CONTAINING THEM” (LES LABORATOIRES SERVIER, priority 2018, published 2021):

Each compound was assayed against T1, His-His-USP7 (aa208-560, |C315A|) (Homo sapiens, UniProt Q93009, C315A) (assay: Evaluation of the inhibition of USP7 by the Fluorescence Intensity (FLINT) readings). Settings: 0.25 nM His-His-USP7, compound incubated 60 minutes at 30° C., 500 nM Ubiquitin-Rhodamine-110 substrate; 50% reduction in kinetic rate.
T1 construct: His-His-USP7 (aa208-560, |C315A|); His-His (N)
Format: biochemical
Method: USP7 activity was measured using Rhodamine-110 c-terminal labelled Ubiquitin as a substrate (UbiQ Bio). Incubation with USP7 results in the release of Rhodamine-110 leading to an increase in fluorescence which can be used in the continuous measurement of USP7 activity.
The USP7 reactions were performed in a 50 μL volume, in 384 well black solid low binding plates (Corning #3575). The reaction buffer consisted of 100 mM Bicine pH 8.0, 0.01% TritonX100, 1 mM TCEP, and 10% DMSO.
0.25 nM His-His-USP7 (aa208-560, |C315A|) was incubated with compound (final concentration 10% DMSO) for 60 minutes at 30° C. The reaction was then initiated by the addition of 500 nM Ubiquitin-Rhodamme-110 substrate and the plate read every 3 minutes for 21 minutes to measure the release of Rhodamine-110. Fluorescence Intensity (FLINT) readings were measured using a […] plate reader (Ex.485 nm, Em.535 nm).
The inhibition of increasing doses of compound was expressed as a percentage reduction in kinetic rate compared to the kinetic rates established between ‘DMSO only’ and ‘total inhibition’ controls (no USP7). The inhibitory concentrations that gave a 50% reduction in kinetic rate (IC50) were determined, from 11-point dose response cures, in XL-Fit using a 4-Parameter Logistic Model 205 (Sigmoidal Dose-Response Model).

T1 sequence (Q93009 208-560 C315A): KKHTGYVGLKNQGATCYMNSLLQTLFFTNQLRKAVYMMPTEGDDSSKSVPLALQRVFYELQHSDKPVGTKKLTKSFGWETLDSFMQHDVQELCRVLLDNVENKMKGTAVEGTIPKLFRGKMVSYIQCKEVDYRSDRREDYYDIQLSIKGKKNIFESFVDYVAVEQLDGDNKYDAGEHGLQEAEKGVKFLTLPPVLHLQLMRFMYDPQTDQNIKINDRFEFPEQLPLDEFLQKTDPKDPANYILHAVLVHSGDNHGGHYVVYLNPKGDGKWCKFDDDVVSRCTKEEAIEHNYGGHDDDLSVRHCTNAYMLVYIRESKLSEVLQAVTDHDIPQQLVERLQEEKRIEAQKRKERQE

Question: For `Nc1c(Oc2ccc(F)cc2)ncn(CC2(O)CCN(C(=O)[C@@H]3CCC(F)(F)C[C@H]3c3ccco3)CC2)c1=O` (relative stereo) [Example 88, 5-amino-3-({1-[(1,2-trans)-4,4-difluoro-2-(furan-2-yl)cyclohexane-1-carbonyl]-4-hydroxypiperidin-4-yl}methyl)-6-(4-fluorophenoxy)pyrimidin-4(3H)-one], which IC50 is on record?
Answer: The IC50 was 111 nM.

Question: With `C#C[C@@]1(O)CC[C@@H](C(=O)N2CCC(O)(Cn3cnc(Oc4ccc(F)cc4)c(N)c3=O)CC2)[C@H](c2ccccc2)C1` (relative stereo) [Example 91, rel-5-amino-3-([1-[(1R,2R,4R)-4-ethynyl-4-hydroxy-2-phenyl-cyclohexanecarbonyl]-4-hydroxypiperidin-4-yl]methyl)-6-(4-fluorophenoxy)-3,4-dihydropyrimidin-4-one] as the compound, how does the IC50 read?
Answer: Its IC50 is 289 nM.

Question: `Nc1c(Oc2ccc(F)cc2)ncn(CC2(O)CCN(C(=O)[C@@H]3CC[C@](O)(Cc4cnccn4)C[C@H]3c3ccccc3)CC2)c1=O` (relative stereo) [Example 98, rel-5-amino-6-(4-fluorophenoxy)-3-[(4-hydroxy-1-{([(1R,2R,4R)-4-hydroxy-2-phenyl-4-(pyrazin-2-ylmethyl)cyclohexyl]carbonyl}piperidin-4-yl)methyl]pyrimidin-4-one] was tested. Which IC50 did it give?
Answer: The IC50 was 223 nM.

Question: `Nc1c(Oc2ccc(F)cc2)ncn(CC2(O)CCN(C(=O)[C@@H]3CC[C@@](O)(Cc4ccc(F)cc4)C[C@H]3c3ccccc3)CC2)c1=O` (relative stereo) [Example 100, rel-5-amino-6-(4-fluorophenoxy)-3-[(1-{[(1R,2R,4S)-4-[(4-fluorophenyl)methyl]-4-hydroxy-2-phenylcyclohexyl]carbonyl}-4-hydroxypiperidin-4-yl)methyl]pyrimidin-4-one] was tested. Which IC50 did it give?
Answer: Its IC50 is 244 nM.

Question: How did the IC50 turn out when `Cn1ccnc1C[C@@]1(O)CC[C@@H](C(=O)N2CCC(O)(Cn3cnc(Oc4ccc(F)cc4)c(N)c3=O)CC2)[C@H](c2ccccc2)C1` (relative stereo) [Example 101, rel-5-amino-6-(4-fluorophenoxy)-3-({4-hydroxy-1-[(1R,2R,4R)-4-hydroxy-4-[(1-methyl-1H-imidazol-2-yl)methyl]-2-phenyl-cyclohexanecarbonyl]piperidin-4-yl)}methyl)-3,4-dihydropyrimidin-4-one] was run?
Answer: Its IC50 is 363 nM.

Question: With `Nc1c(Oc2ccc(F)cc2)ncn(CC2(O)CCN(C(=O)[C@@H]3CC[C@](O)(c4ccccc4)C[C@H]3c3ccccc3)CC2)c1=O` (relative stereo) [Example 102, rel-5-amino-6-(4-fluorophenoxy)-3-[(4-hydroxy-1-{[(1R,2R,4R)-4-hydroxy-2,4-diphenylcyclohexyl]carbonyl}piperidin-4-yl)methyl]pyrimidin-4-one] as the compound, how does the IC50 read?
Answer: The IC50 was 461 nM.

Question: `Nc1c(Oc2ccc(F)cc2)ncn(CC2(O)CCN(C(=O)[C@@H]3CC[C@@](O)(c4ccccc4)C[C@H]3c3ccccc3)CC2)c1=O` (relative stereo) [Example 103, rel-5-amino-6-(4-fluorophenoxy)-3-[(4-hydroxy-1-{[(1R,2R,4S)-4-hydroxy-2,4-diphenylcyclohexyl]carbonyl}piperidin-4-yl)methyl]pyrimidin-4-one] was tested. Which IC50 did it give?
Answer: The IC50 was 312 nM.

Question: With `CC1(F)CC[C@@H](C(=O)N2CCC(O)(Cn3cnc(-c4ccc(F)cc4)c(N)c3=O)CC2)[C@H](c2ccccc2)C1` (relative stereo) [Example 127, rel-5-amino-3-[(1-{[(1R,2R)-4-fluoro-4-methyl-2-phenylcyclohexyl]carbonyl}-4-hydroxypiperidin-4-yl)methyl]-6-(4-fluorophenyl)pyrimidin-4-one] as the compound, how does the IC50 read?
Answer: The IC50 was 46.6 nM.

Question: `Nc1c(Oc2ccccc2F)ncn(CC2(O)CCN(C(=O)[C@@H]3CCC(F)(F)C[C@H]3c3ccccc3)CC2)c1=O` [Example 2, 5-amino-3-({1-[(1R,2R)-4,4-difluoro-2-phenylcyclohexane-1-carbonyl]-4-hydroxypiperidin-4-yl}methyl)-6-(2-fluorophenoxy)pyrimidin-4(3H)-one] was tested. Which IC50 did it give?
Answer: The IC50 was 304 nM.

Question: For `COc1cccc(Oc2ncn(CC3(O)CCN(C(=O)[C@@H]4CCC(F)(F)C[C@H]4c4ccccc4)CC3)c(=O)c2N)c1` [Example 4, 5-amino-3-({1-[(1R,2R)-4,4-difluoro-2-phenylcyclohexane-1-carbonyl]-4-hydroxypiperidin-4-yl}methyl)-6-(3-methoxyphenoxy)pyrimidin-4(3H)-one], which IC50 is on record?
Answer: Its IC50 is 93.8 nM.

Question: For `Nc1c(Oc2cccc(F)c2)ncn(CC2(O)CCN(C(=O)[C@@H]3CCC(F)(F)C[C@H]3c3ccccc3)CC2)c1=O` [Example 6, 5-amino-3-({1-[(1R,2R)-4,4-difluoro-2-phenylcyclohexane-1-carbonyl]-4-hydroxypiperidin-4-yl}methyl)-6-(3-fluorophenoxy)pyrimidin-4(3H)-one], which IC50 is on record?
Answer: Its IC50 is 183 nM.

Question: How did the IC50 turn out when `COc1cc(OC)cc(Oc2ncn(CC3(O)CCN(C(=O)[C@@H]4CCC(F)(F)C[C@H]4c4ccccc4)CC3)c(=O)c2N)c1` [Example 7, 5-amino-3-({1-[(1R,2R)-4,4-difluoro-2-phenylcyclohexane-1-carbonyl]-4-hydroxypiperidin-4-yl}methyl)-6-(3,5-dimethoxyphenoxy)pyrimidin-4(3H)-one] was run?
Answer: The IC50 was 181 nM.

Question: How did the IC50 turn out when `Nc1c(Oc2cc(F)cc(F)c2)ncn(CC2(O)CCN(C(=O)[C@@H]3CCC(F)(F)C[C@H]3c3ccccc3)CC2)c1=O` [Example 8, 5-amino-6-(3,5-difluorophenoxy)-3-({1-[(1R,2R)-4,4-difluoro-2-phenylcyclohexane-1-carbonyl]-4-hydroxypiperidin-4-yl}methyl)pyrimidin-4(3H)-one] was run?
Answer: Its IC50 is 472 nM.

Question: For `Nc1c(Oc2ccccc2)ncn(C[C@]2(O)CCN(C(=O)[C@@H]3CCC(F)(F)C[C@H]3c3ccccc3)CC2(F)F)c1=O` [Example 10, 5-amino-3-[[(4R)-1-[(1R,2R)-4,4-difluoro-2-phenyl-cyclohexanecarbonyl]-3,3-difluoro-4-hydroxy-4-piperidyl]methyl]-6-phenoxy-pyrimidin-4-one], which IC50 is on record?
Answer: Its IC50 is 4320 nM.

Question: How did the IC50 turn out when `O=C([C@@H]1CCC(F)(F)C[C@H]1c1ccccc1)N1CCC(O)(Cn2cnc(Oc3ccccc3)c(NCC(F)(F)F)c2=O)CC1` [Example 17, 3-({1-[(1R,2R)-4,4-difluoro-2-phenylcyclohexane-1-carbonyl]-4-hydroxypiperidin-4-yl}methyl)-6-phenoxy-5-[(2,2,2-trifluoroethyl)amino]pyrimidin-4(3H)-one] was run?
Answer: Its IC50 is 1250 nM.

Question: How did the IC50 turn out when `Nc1c(Oc2cccc(OC(F)(F)F)c2)ncn(CC2(O)CCN(C(=O)[C@@H]3CCC(F)(F)C[C@H]3c3ccccc3)CC2)c1=O` [Example 18, 5-amino-3-({1-[(1R,2R)-4,4-difluoro-2-phenylcyclohexane-1-carbonyl]-4-hydroxypiperidin-4-yl}methyl)-6-[3-(trifluoromethoxy)phenoxy]pyrimidin-4(3H)-one] was run?
Answer: The IC50 was 247 nM.

Question: Which IC50 does the source give for `Nc1c(Oc2cccc(S(F)(F)(F)(F)F)c2)ncn(CC2(O)CCN(C(=O)[C@@H]3CCC(F)(F)C[C@H]3c3ccccc3)CC2)c1=O` [Example 21, 5-amino-3-({1-[(1R,2R)-4,4-difluoro-2-phenylcyclohexane-1-carbonyl]-4-hydroxypiperidin-4-yl}methyl)-6-[3-(pentafluoro-λ^6-sulfanyl)phenoxy]pyrimidin-4(3H)-one] here?
Answer: Its IC50 is 716 nM.

Question: For `Nc1c(Oc2cccc(C(F)(F)F)c2)ncn(CC2(O)CCN(C(=O)[C@@H]3CCC(F)(F)C[C@H]3c3ccccc3)CC2)c1=O` [Example 22, 5-amino-3-({1-[(1R,2R)-4,4-difluoro-2-phenylcyclohexane-1-carbonyl]-4-hydroxypiperidin-4-yl}methyl)-6-[3-(trifluoromethyl)phenoxy]pyrimidin-4(3H)-one], which IC50 is on record?
Answer: The IC50 was 264 nM.

Question: How did the IC50 turn out when `N#Cc1cccc(Oc2ncn(CC3(O)CCN(C(=O)[C@@H]4CCC(F)(F)C[C@H]4c4ccccc4)CC3)c(=O)c2N)c1` [Example 25, 3-{[5-amino-1-({1-[(1R,2R)-4,4-difluoro-2-phenylcyclohexane-1-carbonyl]-4-hydroxypiperidin-4-yl}methyl)-6-oxo-1,6-dihydropyrimidin-4-yl]oxy}benzonitrile] was run?
Answer: Its IC50 is 203 nM.

Question: Which IC50 does the source give for `COC(=O)c1cccc(Oc2ncn(CC3(O)CCN(C(=O)[C@@H]4CCC(F)(F)C[C@H]4c4ccccc4)CC3)c(=O)c2N)c1` [Example 27, methyl 3-{[5-amino-1-({1-[(1R,2R)-4,4-difluoro-2-phenylcyclohexane-1-carbonyl]-4-hydroxypiperidin-4-yl}methyl)-6-oxo-1,6-dihydropyrimidin-4-yl]oxy}benzoate] here?
Answer: Its IC50 is 85 nM.

Question: Which IC50 does the source give for `Nc1c(Oc2ccc(CCCO)cc2)ncn(CC2(O)CCN(C(=O)[C@@H]3CCC(F)(F)C[C@H]3c3ccccc3)CC2)c1=O` [Example 29, 5-amino-3-({1-[(1R,2R)-4,4-difluoro-2-phenylcyclohexane-1-carbonyl]-4-hydroxypiperidin-4-yl}methyl)-6-[4-(3-hydroxypropyl)phenoxy]pyrimidin-4(3H)-one] here?
Answer: The IC50 was 175 nM.

Question: For `Nc1c(Sc2ccccc2)ncn(CC2(O)CCN(C(=O)[C@@H]3CCC(F)(F)C[C@H]3c3ccccc3)CC2)c1=O` [Example 30, 5-amino-3-({1-[(1R,2R)-4,4-difluoro-2-phenylcyclohexane-1-carbonyl]-4-hydroxypiperidin-4-yl}methyl)-6-(phenylsulfanyl)pyrimidin-4(3H)-one], which IC50 is on record?
Answer: Its IC50 is 151 nM.
